Data taken from patent publication US6358514B1, “Combination of a retinoid with a histidine derivative” (L'Oreal, priority 1998, dated 2002).

Assay type: physicochemical
Method: The stability of a retinoid is defined in accordance with the present invention by the percentage of the retinoid which remains in its original form after the composition comprising it has been stored for a given period and at a given temperature.
Test of stability of 0.3% all-trans retinol in a water/ethanol mixture stored at 45° C.
The conditions of the study are as follows: test compound at 0.1% (as weight/volume) in water/ethanol (40/60%) all-trans retinol sold by the company Fluka at 0.3% (as weight/volume) in water/ethanol (40/60%) aerobic medium with 55% by volume of air and 45% by volume of ethanol/water storage at 45° C. in amber-coloured bottles.
Degradation of the retinol under these conditions reaches 100% in 7 days of storage at 45° C. The storage conditions to which we subjected the compositions are particularly harsh.
The residual retinol content is monitored by HPLC (on a Spherisorb ODS1 C18 column, by elution with an H2O/CH3CO2H/CH3CO2NH4/acetonitrile mixture: 15/1/0.4/83.6) at 7 days (RT1) and 15 days (RT2) of storage at 45° C. in aerobic medium (55% by volume of air).

Structure (SMILES)	stabilization of retinol compared with the histidine derivatives	Degradation of the retinol (7 days, 0.3 % (weight/volume))
NCCC(=O)N[C@@H](Cc1cnc[nH]1)C(=O)O [carnosine]	stabilizes retinol much less	
CC1=C(/C=C/C(C)=C/C=C/C(C)=C/CO)C(C)(C)CCC1 [retinol, all-trans retinol]		100%
